Laboratory results from ChEMBL document CHEMBL4673219, “Novel 5,6-disubstituted pyrrolo[2,3-d]pyrimidine derivatives as broad spectrum antiproliferative agents: Synthesis, cell based assays, kinase profile and molecular docking study” (Bioorg Med Chem, 2018).
Where “and” joins values, the source holds several entries; their conditions need not be identical. Identical values can stand only once.

Assays:
[1] = tested on: TK-10; test: Growth inhibition of human TK-10 cells assessed as growth percentage at 10 uM incubated for 48 hrs by sulforhodamine B assay relative to control; format: functional; conditions: read-out: Activity
[2] = tested on: SK-MEL-2; test: Growth inhibition of human SK-MEL-2 cells assessed as growth percentage at 10 uM incubated for 48 hrs by sulforhodamine B assay relative to control; format: functional; conditions: read-out: Activity
[3] = tested on: SF-539; test: Growth inhibition of human SF-539 cells assessed as growth percentage at 10 uM incubated for 48 hrs by sulforhodamine B assay relative to control; format: functional; conditions: read-out: Activity
[4] = tested on: MCF7; test: Growth inhibition of human MCF7 cells incubated for 48 hrs by sulforhodamine B assay; format: functional
[5] = tested on: UACC-62; test: Growth inhibition of human UACC-62 cells incubated for 48 hrs by sulforhodamine B assay; format: functional
[6] = tested on: M14; test: Growth inhibition of human M14 cells incubated for 48 hrs by sulforhodamine B assay; format: functional
[7] = tested on: Malme-3M; test: Growth inhibition of human Malme-3M cells incubated for 48 hrs by sulforhodamine B assay; format: functional; conditions: for GI50: 48 h
[8] = tested on: LOX IMVI; test: Growth inhibition of human LOX IMVI cells incubated for 48 hrs by sulforhodamine B assay; format: functional
[9] = tested on: SF-539; test: Growth inhibition of human SF-539 cells incubated for 48 hrs by sulforhodamine B assay; format: functional
[10] = tested on: SK-MEL-28; test: Growth inhibition of human SK-MEL-28 cells assessed as growth percentage at 100 uM incubated for 48 hrs by sulforhodamine B assay relative to control; format: functional; conditions: read-out: Activity
[11] = tested on: SK-MEL-2; test: Growth inhibition of human SK-MEL-2 cells assessed as growth percentage at 100 uM incubated for 48 hrs by sulforhodamine B assay relative to control; format: functional; conditions: read-out: Activity
[12] = tested on: SK-MEL-2; test: Growth inhibition of human SK-MEL-2 cells assessed as growth percentage at 0.1 uM incubated for 48 hrs by sulforhodamine B assay relative to control; format: functional; conditions: read-out: Activity
[13] = tested on: SN12C; test: Growth inhibition of human SN12C cells assessed as growth percentage at 100 uM incubated for 48 hrs by sulforhodamine B assay relative to control; format: functional; conditions: read-out: Activity
[14] = tested on: NCI/ADR-RES; test: Growth inhibition of human NCI/ADR-RES cells assessed as growth percentage at 100 uM incubated for 48 hrs by sulforhodamine B assay relative to control; format: functional; conditions: read-out: Activity
[15] = tested on: SF-539; test: Growth inhibition of human SF-539 cells assessed as growth percentage at 100 uM incubated for 48 hrs by sulforhodamine B assay relative to control; format: functional; conditions: read-out: Activity
[16] = tested on: HCC 2998; test: Growth inhibition of human HCC 2998 cells assessed as growth percentage at 100 uM incubated for 48 hrs by sulforhodamine B assay relative to control; format: functional; conditions: read-out: Activity
[17] = tested on: A549; test: Growth inhibition of human A549/ATCC cells assessed as growth percentage at 100 uM incubated for 48 hrs by sulforhodamine B assay relative to control; format: functional; conditions: read-out: Activity
[18] = tested on: T47D; test: Growth inhibition of human T47D cells assessed as growth percentage at 1 uM incubated for 48 hrs by sulforhodamine B assay relative to control; format: functional; conditions: read-out: Activity
[19] = tested on: M14; test: Growth inhibition of human M14 cells assessed as growth percentage at 1 uM incubated for 48 hrs by sulforhodamine B assay relative to control; format: functional; conditions: read-out: Activity
[20] = tested on: SF-268; test: Growth inhibition of human SF-268 cells assessed as growth percentage at 1 uM incubated for 48 hrs by sulforhodamine B assay relative to control; format: functional; conditions: read-out: Activity
[21] = tested on: SW-620; test: Growth inhibition of human SW-620 cells assessed as growth percentage at 1 uM incubated for 48 hrs by sulforhodamine B assay relative to control; format: functional; conditions: read-out: Activity
[22] = tested on: HCC 2998; test: Growth inhibition of human HCC 2998 cells assessed as growth percentage at 1 uM incubated for 48 hrs by sulforhodamine B assay relative to control; format: functional; conditions: read-out: Activity
[23] = tested on: DU-145; test: Growth inhibition of human DU-145 cells assessed as growth percentage at 0.1 uM incubated for 48 hrs by sulforhodamine B assay relative to control; format: functional; conditions: read-out: Activity
[24] = tested on: PC-3; test: Growth inhibition of human PC-3 cells assessed as growth percentage at 0.1 uM incubated for 48 hrs by sulforhodamine B assay relative to control; format: functional; conditions: read-out: Activity
[25] = tested on: RXF 393; test: Growth inhibition of human RXF 393 cells assessed as growth percentage at 0.1 uM incubated for 48 hrs by sulforhodamine B assay relative to control; format: functional; conditions: read-out: Activity
[26] = tested on: CAKI-1; test: Growth inhibition of human CAKI-1 cells assessed as growth percentage at 0.1 uM incubated for 48 hrs by sulforhodamine B assay relative to control; format: functional; conditions: read-out: Activity
[27] = tested on: NCI/ADR-RES; test: Growth inhibition of human NCI/ADR-RES cells assessed as growth percentage at 0.1 uM incubated for 48 hrs by sulforhodamine B assay relative to control; format: functional; conditions: read-out: Activity
[28] = tested on: OVCAR-5; test: Growth inhibition of human OVCAR-5 cells assessed as growth percentage at 0.1 uM incubated for 48 hrs by sulforhodamine B assay relative to control; format: functional; conditions: read-out: Activity
[29] = tested on: HCT-15; test: Growth inhibition of human HCT-15 cells assessed as growth percentage at 0.1 uM incubated for 48 hrs by sulforhodamine B assay relative to control; format: functional; conditions: read-out: Activity
[30] = tested on: SK-MEL-5; test: Growth inhibition of human SK-MEL-5 cells assessed as growth percentage at 0.01 uM incubated for 48 hrs by sulforhodamine B assay relative to control; format: functional; conditions: read-out: Activity
[31] = tested on: HOP-92; test: Growth inhibition of human HOP-92 cells assessed as growth percentage at 0.01 uM incubated for 48 hrs by sulforhodamine B assay relative to control; format: functional; conditions: read-out: Activity
[32] = tested on: SR; test: Growth inhibition of human SR cells assessed as growth percentage at 0.01 uM incubated for 48 hrs by sulforhodamine B assay relative to control; format: functional; conditions: read-out: Activity
[33] = tested on: CCRF-CEM; test: Growth inhibition of human CCRF-CEM cells assessed as growth percentage at 0.01 uM incubated for 48 hrs by sulforhodamine B assay relative to control; format: functional; conditions: read-out: Activity
[34] = Terminal half life in Sprague-Dawley rat at 10 mg/kg, po measured up to 24 hrs by LC-MS/MS analysis; format: ADME, organism-based; conditions: in vivo, read-out: beta t1/2
[35] = Terminal half life in Sprague-Dawley rat at 10 mg/kg, iv measured up to 24 hrs by LC-MS/MS analysis; format: ADME, organism-based; conditions: in vivo, read-out: beta t1/2
[36] = AUC (0 to infinity) in Sprague-Dawley rat at 10 mg/kg, iv measured up to 24 hrs by LC-MS/MS analysis; format: ADME, organism-based; set-up: route intravenous, dose 10 mg/kg, time <=24; conditions: in vivo
[37] = tested on: HL-60(TB); test: Growth inhibition of human HL-60(TB) cells assessed as growth percentage at 100 uM incubated for 48 hrs by sulforhodamine B assay relative to control; format: functional; conditions: read-out: Activity

## Nc1nc2[nH]c(CN3CCN(c4cc(Cl)cc(Cl)c4)CC3)c(CN3CCN(c4cc(Cl)cc(Cl)c4)CC3)c2c(=O)[nH]1
[1]
  growth at 10 µM: 77.1%
[2]
  growth at 10 µM: 108%
[3]
  growth at 10 µM: 84.5%
[4]; Homo sapiens, MCF7, 48 h
  GI50: 1580 nM
  TGI: 3430 nM
[5]; Homo sapiens, UACC-62, 48 h
  GI50: 1800 nM
  TGI: 3420 nM
[6]; Homo sapiens, M14, 48 h
  GI50: 1830 nM
  TGI: 3630 nM
[7]; Homo sapiens, Malme-3M
  TGI: 3930 nM
  GI50: 2000 nM
[8]; Homo sapiens, LOX IMVI
  GI50: 1940 nM
  TGI: 3570 nM
[9]
  GI50: 1720 nM
  TGI: 3260 nM
[10]
  growth at 100 µM: -42%
[11]
  growth at 100 µM: -48%
[12]
  growth at 0.1 µM: 115%
[13]
  growth at 100 µM: -35%
[14]
  growth at 100 µM: 55%
[15]
  growth at 100 µM: -55%
[16]
  growth at 100 µM: -38%
[17]
  growth at 100 µM: -45%
[18]
  growth at 1 µM: 85%
[19]
  growth at 1 µM: 94%
[20]
  growth at 1 µM: 94%
[21]
  growth at 1 µM: 88%
[22]
  growth at 1 µM: 93%
[23]
  growth at 0.1 µM: 109%
[24]
  growth at 0.1 µM: 96%
[25]
  growth at 0.1 µM: 89%
[26]
  growth at 0.1 µM: 90%
[27]
  growth at 0.1 µM: 97%
[28]
  growth at 0.1 µM: 94%
[29]
  growth at 0.1 µM: 95%
[30]
  growth at 0.01 µM: 96%
[31]
  growth at 0.01 µM: 85%
[32]
  growth at 0.01 µM: 102%
[33]
  growth at 0.01 µM: 99%

## CCCCCCCC(=O)Nc1nc2[nH]c(CN3CCN(Cc4cccc(F)c4)CC3)c(CN3CCN(Cc4cccc(F)c4)CC3)c2c(=O)[nH]1
[1]
  growth at 10 µM: -65%
[2]
  growth at 10 µM: -66.9%
[3]
  growth at 10 µM: -96.9%
[34]
  half-life: 1.66 h
[35]
  half-life: 11.7 h
[36]
  AUC(0-inf): 498 ng·h/mL
[4]; 48 h
  GI50: 190 nM
  LC50: 990 nM
  TGI: 430 nM
[4]; Homo sapiens, MCF7, 48 h
  GI50: 186 nM
  LC50: 985 nM
  TGI: 428 nM
[5]; 48 h
  GI50: 1680 nM
  TGI: 3150 nM
[5]; 48 h, read-out: LC50 (the source's name)
  CC50: 590 nM and 5900 nM
[5]; Homo sapiens, UACC-62, 48 h
  GI50: 1800 nM
  TGI: 3420 nM
[6]; 48 h
  GI50: 210 nM
  TGI: 470 nM
[6]; Homo sapiens, M14
  LC50 (50% lethal concentration): 1240 nM
[6]; Homo sapiens, M14, 48 h
  GI50: 205 nM
  TGI: 466 nM
[7]
  GI50: 670 nM
[7]; Homo sapiens, Malme-3M
  TGI: 2240 nM
  GI50: 672 nM
[7]; Homo sapiens, Malme-3M, read-out: LC50 (the source's name)
  CC50: 6110 nM
[8]
  GI50: 200 nM
  LC50 (concentration killing 50% of cells): 8870 nM and 890 nM
  TGI: 420 nM
[8]; Homo sapiens, LOX IMVI
  GI50: 195 nM
  TGI: 416 nM
[9]
  GI50: 1560 nM
[13]
  growth at 100 µM: -69%
[14]
  growth at 100 µM: -86%
[16]
  growth at 100 µM: -79%
[17]
  growth at 100 µM: -88%
[18]
  growth at 1 µM: 80%
[19]
  growth at 1 µM: -47%
[20]
  growth at 1 µM: 65%
[21]
  growth at 1 µM: -72%
[22]
  growth at 1 µM: -33%
[23]
  growth at 0.1 µM: 101%
[24]
  growth at 0.1 µM: 96%
[25]
  growth at 0.1 µM: 100%
[26]
  growth at 0.1 µM: 85%
[27]
  growth at 0.1 µM: 95%
[29]
  growth at 0.1 µM: 94%
[30]
  growth at 0.01 µM: 100%
[31]
  growth at 0.01 µM: 90%
[32]
  growth at 0.01 µM: 92%
[37]
  growth at 100 µM: -45%
[33]
  growth at 0.01 µM: 98%
